Like-named read-outs stand apart in the source and are kept apart here.
Tests used:
[1] = system: UMR 106 cell line; conditions: UMR 106 cells in vitro; Wang et al. 2001, Meng et al. 2004; cited from earlier work
[2] = system: ovariectomized rats; assay: ovariectomized rat osteoporosis animal model; type: in vivo; conditions: femur, three months, dose not given
Description: Materials have been tested in ovariectomized rats, a popular and generally accepted osteoporosis animal model.
After orally dosing continuously for three months at 0.12, 0.25, 0.5 and 0.8 g/kg/day, twice a day, the bone mass index, wet weight and dry weight of femur, bone mineral densities of femur and lumbar were measured and calculated. Body weights of rats were measured weekly.
The effects of the purified composition on the body weight of the rats in the groups described above were determined.
We measured the body weight of each experimental animal group weekly.

[3] = system: osteoblast-like cells; conditions: Kim et al. (2003), Ha (2003), cited from earlier work
[4] = system: human osteoblast-like cell lines, MG-63 and hFOB; conditions: Kuo et al. (2005); cited from earlier work

| Compound | osteoblastic proliferation activity [1] | proliferation of osteoblast-like cells [3] | other results |
| --- | --- | --- | --- |
| COc1c2ccoc2cc2oc(=O)ccc12 [Bergapten, bergapten] | less effective than osthole |  |  |
| NCCCC(O)(P(=O)(O)O)P(=O)(O)O [Fosamax ®] |  |  | Wet Weight (mg/cm) ( x ± s) [2]: 205.8757 ± 18.32 mg/cm |
| O=C(O)C1=CO[C@@H](O[C@@H]2O[C@H](CO)[C@@H](O)[C@H](O)[C@H]2O)[C@@H]2C(CO)=CC[C@H]12 [GPA, geniposidic acid] |  | increases the proliferation of osteoblast-like cells | proliferation of osteoblast-like cells ([3]; listed as geniposidic acid): increased the proliferation of osteoblast-like cells |
| COc1ccc2ccc(=O)oc2c1CC=C(C)C [Osthole, osthole] | significantly promoted the cells' activity |  | differentiation of osteoblast-like cells [4]: significantly induced the differentiation |
| OCC1=C[C@@H](O)[C@@H]2C=CO[C@@H](O[C@@H]3O[C@H](CO)[C@@H](O)[C@H](O)[C@H]3O)[C@H]12 [aucubin] |  | increased the proliferation of osteoblast-like cells |  |
| COC(=O)C1=CO[C@@H](O[C@@H]2O[C@H](CO)[C@@H](O)[C@H](O)[C@H]2O)[C@@H]2C(CO)=CC[C@H]12 [geniposide] |  | increased the proliferation of osteoblast-like cells |  |
| CC(C)=CCOc1c2occc2cc2ccc(=O)oc12 [imperatorin] | less effective than osthole |  |  |
